Source: patent US20080275035A1 (priority 2005, published 2008)
≈ marks a conversion by molar mass, not a printed value.

How the values were obtained:
[1] = test system: Mycobacterium tuberculosis H37Rv (ATCC 27294); experiment: microbe, parasite or virus in culture; assay type: cell-based

Compound `O=C(CO[C@@H]1COc2nc([N+](=O)[O-])cn2C1)N1CCC(c2nc3cc(OC(F)(F)F)ccc3[nH]2)CC1` has a melting point of 131 to 132 °C.
For `O=C(CO[C@@H]1COc2nc([N+](=O)[O-])cn2C1)Nc1nc2ccc(OC(F)(F)F)cc2s1` (stereo in doubt), the melting point was 89 to 90 °C.
`[H]/N=C(/N)N[C@H]1[C@H](O)[C@@H](O)[C@H](O[C@@H]2O[C@@H](C)[C@](O)(C=O)[C@H]2O[C@@H]2O[C@@H](CO)[C@H](O)[C@@H](O)[C@@H]2NC)[C@@H](N/C(N)=N\[H])[C@@H]1O` [streptomycin] gave an MIC [1] of 0.25 µg/mL (≈ 0.43 µM).
In the case of `O=[N+]([O-])c1cn2c(n1)OC[C@@H](OCc1nc3ccc(OC(F)(F)F)cc3[nH]1)C2`, the melting point is reported as 99 to 100 °C.
Work on `O=[N+]([O-])c1cn2c(n1)OC[C@@H](OCc1csc(-c3ccc(OC(F)(F)F)cc3)n1)C2` yielded a melting point of 140 to 141 °C.
`O=[N+]([O-])c1cn2c(n1)OC[C@@H](OCc1ccc(-c3nc4cc(OC(F)(F)F)ccc4[nH]3)cc1)C2` showed a melting point of 98 to 99 °C.
For `O=[N+]([O-])c1cn2c(n1)OCC(OCc1ccc(OCc3ccc(F)cc3)cc1)C2` (stereo not drawn), the melting point was 150.2 to 150.9 °C.
With `O=[N+]([O-])c1cn2c(n1)OCC(OCc1ccc(-c3nc4cc(OC(F)(F)F)ccc4o3)cc1)C2` (stereo not drawn) the melting point was 187 to 188 °C.
With `O=C(CO[C@@H]1COc2nc([N+](=O)[O-])cn2C1)Nc1nc(-c2ccc(OC(F)(F)F)cc2)cs1` the melting point was 120 to 121 °C.
`O=C(CO[C@@H]1COc2nc([N+](=O)[O-])cn2C1)N1CCN(c2ccc(F)cc2)CC1` showed a melting point of 73 to 74 °C.
Compound `O=[N+]([O-])c1cn2c(n1)OC[C@@H](OCc1nc3ccc(C(F)(F)F)cc3[nH]1)C2` has a melting point of 120 to 121 °C.
In the case of `O=C(CO[C@@H]1COc2nc([N+](=O)[O-])cn2C1)Nc1ccc(OC(F)(F)F)cc1`, the melting point is reported as 157 to 158 °C.
Compound `O=C(CO[C@@H]1COc2nc([N+](=O)[O-])cn2C1)N1CCN(c2ccc(OC(F)(F)F)cc2)CC1` has a melting point of 77 to 79 °C.
In the case of `O=C(CO[C@@H]1COc2nc([N+](=O)[O-])cn2C1)NCc1ccc(OC(F)(F)F)cc1`, the melting point is reported as 110 to 111 °C.
Compound `O=C(CO[C@@H]1COc2nc([N+](=O)[O-])cn2C1)N1CCN(c2ccc(C(F)(F)F)cn2)CC1` has a melting point of 189 to 190 °C.
